From patent US9370506B2, “Modulators of aldehyde dehydrogenase and methods of use thereof” (The Board of Trustees of the Leland Stanford Junior …, priority 2008, dated 2016)

Columns and labels:
ALDH3 = target: T1, ALDH3 (Homo sapiens, UniProt P30838); test: ALDH3 enzymatic activity, spectrophotometric NAD+ to NADH assay; format: biochemical; conditions: acetaldehyde as substrate; FIG. 15
T1 construct: made in house; host or cells: BL21 E. coli
T1 sequence (P30838 1-453): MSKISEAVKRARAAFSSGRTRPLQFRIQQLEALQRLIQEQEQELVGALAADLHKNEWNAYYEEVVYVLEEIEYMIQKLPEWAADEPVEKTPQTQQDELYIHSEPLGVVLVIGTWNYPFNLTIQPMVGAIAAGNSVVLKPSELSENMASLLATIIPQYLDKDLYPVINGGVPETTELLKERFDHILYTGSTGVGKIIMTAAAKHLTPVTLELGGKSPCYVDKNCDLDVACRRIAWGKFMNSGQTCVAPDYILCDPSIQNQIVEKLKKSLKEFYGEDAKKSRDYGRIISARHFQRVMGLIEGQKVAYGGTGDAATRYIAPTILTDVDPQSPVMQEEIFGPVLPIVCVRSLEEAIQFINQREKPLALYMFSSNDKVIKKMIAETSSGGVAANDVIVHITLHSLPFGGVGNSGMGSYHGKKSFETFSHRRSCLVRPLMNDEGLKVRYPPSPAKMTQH
Protocol: (§1) Reagents for plant-derived compounds safrole, isosafrole, piperine, sesamin, capsaicin were purchased from Sigma-Aldrich Chemicals and dihydromethysticin was purchased from AvaChem. Scientific. Piperine related compounds, Alda-101 to Alda-112, were synthesized by standard organic chemistry. All testing compounds were dissolved in dimethyl-sulfoxide (DMSO) to obtain a stock solution of 20 mM. Different recombinant ALDH isozymes with a His-epitope tag at the N-terminus were constructed, cloned and expressed in BL21 E. coli host cells according published methods (Chen et al., 2008 Science 321:1493). The bacteria were subjected to 0.5 mM IPTG induction for protein expression at 30° C. Purification of the recombinant proteins by affinity nickel columns were carried out using a standard protocol according to manufacturer's instructions (Novagen, Wis., USA).
(§2) ALDH enzymatic activity was determined spectrophotometrically using purified recombinant protein (15 ug) in the reductive reaction of NAD^+ to NADH at λ340 nm (Rex et al., 1985, Alcohol Clin Exp Res 9: 147). All the assays in the presence of absence of a testing compound were carried out at 25° C. in […] pyrophosphate buffer, pH=9.5, 2.4 mM NAD+ and 10 mM acetaldehyde or phenylacetaldehyde as a substrate.

C57Bl/6J mice = test: Radiation dermatitis model, gamma irradiation of skin; format: in vivo
Text: Radiation dermatitis is a painful side effect experienced by human patients undergoing radiotherapy for solid tumors. Radiation dermatitis is believed to be due to acute oxidative injury to the skin, which leads to lipid peroxidation and the accumulation of reactive aldehydes, such as 4-hydrorxynonenal. In this example, Alda-1 is shown to reduce radiation dermatitis by maintaining ALDH activity during exposure to radiation. C57Bl/6J mice were exposed to 6Gy gamma irradiation per day (applied directly to the shaved back area over a period of 5 minutes) in the absence or presence of 200 μl of 3 mM Alda-1 (in 95% ethanol) or […] alone (vehicle control). Alda-1 or ethanol alone was applied topically 5 minutes before and 5 minutes after each radiation treatment for a total of 10 sessions (60 Gy total, 6 Gy/day with a two-day break after 5 sessions). Mice were euthanized and exposed skin was dissected, and either homogenized in Lysis Buffer (for ALDH2 activity assay, FIG. 18) or fixed in 4%-paraformaldehyde (for histological analysis, FIG. 19).

[1] = tested on: SCC VII murine squamous cell carcinoma cells; test: Tumor radiation therapy model; format: in vivo, mice; conditions: topical 200 μl of 3 mM, FIG. 21
Protocol: In order to determine the impact of Alda-1 on the effectiveness of radiation therapy, C57Bl/6J mice were inoculated subcutaneously with SCC VII murine squamous cell carcinoma cells (5×10^5) and exposed to radiation therapy (250cGy/day) in the absence or presence of Alda-1 (200 μl of 3 mM Alda-1 in 95% ethanol) or ethanol (200 μl of 95% ethanol) applied 5 min before and 5 min after radiation. Tumor volume was measured daily until the tumor reached four times its starting size at treatment onset (Ning et al., 2008, Mol Cancer Therapy 7:1569-78).

ALDH2 isozyme = target: T2, ALDH2 isozyme (Homo sapiens, UniProt P05091); test: ALDH2 enzymatic activity, spectrophotometric NAD+ to NADH assay; format: biochemical; conditions: 40 uM
T2 construct: made in house; host or cells: BL21 E. coli
T2 sequence (P05091 18-517): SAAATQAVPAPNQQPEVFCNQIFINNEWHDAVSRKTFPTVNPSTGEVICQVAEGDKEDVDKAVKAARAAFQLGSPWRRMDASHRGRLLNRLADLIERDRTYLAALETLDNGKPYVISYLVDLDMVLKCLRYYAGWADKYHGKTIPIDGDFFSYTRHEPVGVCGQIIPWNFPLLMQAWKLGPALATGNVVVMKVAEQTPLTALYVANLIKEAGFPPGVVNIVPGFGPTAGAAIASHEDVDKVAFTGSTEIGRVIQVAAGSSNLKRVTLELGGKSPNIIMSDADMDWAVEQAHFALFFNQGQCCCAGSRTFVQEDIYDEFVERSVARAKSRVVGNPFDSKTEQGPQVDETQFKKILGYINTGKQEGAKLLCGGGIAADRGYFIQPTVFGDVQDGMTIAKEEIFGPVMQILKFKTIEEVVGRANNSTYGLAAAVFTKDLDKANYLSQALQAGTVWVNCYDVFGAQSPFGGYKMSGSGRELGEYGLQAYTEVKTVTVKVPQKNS
Protocol: as §1, §2

O=C(NCc1ccc2c(c1)OCO2)c1c(Cl)cccc1Cl [Alda-1, N-(1,3-benzodioxol-5-ylmethyl)-2,6-dichlorobenzamide]
effect on enzymatic activity of ALDH3 isozyme (ALDH3): does not have any effect
ALDH activity in irradiated skin (C57Bl/6J mice; topical 3 mM in 95% ethanol, 6Gy gamma irradiation, FIG. 19): significantly attenuated the inhibition of ALDH
Epidermal thickening after radiation (C57Bl/6J mice; topical 3 mM, 5 days exposure to 6Gy irradiation, vs vehicle control, FIG. 20): significantly reduced
sensitivity of the tumor to radiation treatment (tumor growth) ([1]; 250cGy/day, vs ethanol vehicle control): increased significantly the sensitivity of the tumor to radiation treatment
tumor growth in non-irradiated mice ([1]; no radiation, vs ethanol treated mice): no effect on tumor growth
effect of co-incubation on safrole inhibition of ALDH2 (ALDH2 isozyme; safrole 500 uM & 1000 uM, FIG. 17): prevented and reversed
effect of co-incubation on safrole inhibition of ALDH2, 15-minute kinetic measurements (ALDH2 isozyme; safrole 1000 uM, FIG. 18): prevented and reversed
